# From patent publication US20240207236A1, “COMPOUND FOR PREVENTING OR TREATING DIABETES” (ONCOCROSS CO., LTD., priority 2021, published 2024)
# Legend:
# Format in all cases: in vivo, mice (C57BL/6)
# [1] = Body weight of mice in STZ-induced insulin-resistant diabetes model
# Description: (§1) STZ (Sigma-aldrich, S0130, 40 mg/kg b.w., in 0.1 M citrate buffer pH 4.5) was intraperitoneally administered to 9-week-old male mice (C57BL/6) once/1 day for 5 days to perform a first disease induction. After 7 weeks of the first induction, a second induction was performed using the same method as the first induction. For 5 days of an STZ administration period for the first induction, 10% sucrose was administered as drinking water. In addition, after 14 days of the second administration, blood sugar was confirmed to confirm the induction rate, and the induced animals were separated into groups. Experimental substances (R)-4-{(R)-1-[7-(3,4,5-trimethoxy-phenyl)-[1,6] naphthyridine-5-yloxy]-ethyl}pyrrolidine-2-one (BI-1002494) and cromolyn (OC-101) were administered orally into the stomach at 10 mL/kg using an oral administration syringe (sonde) before 16:00 daily for 12 weeks at a frequency of 7 days/week at doses shown in Table 1 below, respectively, and dexamethasone was orally administered as a positive control substance.
# [2] = Drinking water intake of mice in STZ-induced insulin-resistant diabetes model; design: unit not given here
# Description: as §1
# [3] = test system: animal model of insulin-resistant diabetes; assay: Blood sugar, tail vein blood, blood sugar meter, 4 h fasting; design: blood sugar, Mean: unit not given here
# Description: as §1
# Before disease induction, excluding week 9 of administration of experimental substances to mice in each group of Example 1 above, after 2 weeks after the first induction (based on a first administration date), and after 6 weeks and 2 weeks of the second induction (based on the first administration date), blood was collected from the tail vein and blood sugar was measured using a blood sugar meter (Accu-Check, Roche), and fasting was performed for 4 hours from 9:30 a.m. to 1:30 p.m.
# [4] = test system: animal model of insulin-resistant diabetes; assay: Blood biochemistry, automated analyzer, at end of observation
# Description: as §1
# (§2) After the observation period for mice of each group in Example 1 was terminated, all surviving animals were fasted in the same manner as when measuring blood sugar, and then anesthetized by inhaling isoflurane, and blood was collected from the abdominal vena cava through laparotomy. After the blood collection was completed, the veins and arteries were cut under anesthesia and exsanguinated. The collected blood was left at room temperature for 30 minutes or more and then centrifuged at 3,000 rpm for 20 minutes. Thereafter, glucose, blood urea nitrogen (BUN), and creatinine were analyzed using an automated blood biochemistry analyzer (Hitachi 3100, Hitachi Co. Ltd., Japan). Indoxyl sulfate (a substance that was mainly produced in the intestines to cause kidney damage, and a substance that caused end-stage renal failure by advancing kidney function damage in patients with renal failure during hemodialysis) was analyzed using LC MS/MS. In addition, blood insulin was analyzed according to a method represented by a commercial Mouse Insulin ELISA KIT (#AKRIN-011T, Sibayagi Co. Ltd., Japan).
# [5] = test system: animal model of insulin-resistant diabetes; assay: Histopathological change of liver, kidney and pancreas (H&E); conditions: count in group of 10 animals
# Description: as §1
# At the end of the observation period, the mice in each group of Example 1 were confirmed to be dead, and the liver, kidney, and pancreas were extracted and fixed with 10% neutral buffered formalin (NBF) in at least 20 times the tissue volume. The fixed tissue was sectioned to a thickness of approximately 4 mm and then produced into a paraffin block through general tissue processing and embedding processes. Thereafter, the tissue was sectioned to a thickness of 4 μm using a rotary microtome, and then H&E staining was performed, and histopathological changes were observed.
# [6] = Feed intake of mice in STZ-induced insulin-resistant diabetes model; design: feed intake: unit not given here; conditions: 50 mg/kg/day oral
# Description: as §1
# [7] = test system: animal model of insulin-resistant diabetes; assay: Blood insulin (Mouse Insulin ELISA) and HOMA-IR; conditions: 50 mg/kg
# Description: as §1, §2
# [8] = test system: animal model of insulin-resistant diabetes; assay: Blood indoxyl sulfate by LC MS/MS; conditions: 50 mg/kg/day oral, 12 weeks
# Description: as §1, §2
# [9] = 50 mg/kg/day oral, 12 weeks, blood
structure (smiles),measurement,setting,value
"C[C@@H]1C[C@H]2[C@@H]3CCC4=CC(=O)C=C[C@]4(C)[C@@]3(F)[C@@H](O)C[C@]2(C)[C@@]1(O)C(=O)CO [Dexamethasone, reference compound]","body weight, Mean","[1]; 2 mg/kg/day oral, week 0",24 g
same,"body weight, Mean","[1]; 2 mg/kg/day oral, week 1",23.5 g
same,"body weight, Mean","[1]; 2 mg/kg/day oral, week 2",23.6 g
same,"body weight, Mean","[1]; 2 mg/kg/day oral, week 3",23.6 g
same,"body weight, Mean","[1]; 2 mg/kg/day oral, week 4",23.6 g
same,"body weight, Mean","[1]; 2 mg/kg/day oral, week 5",23.7 g
same,"body weight, Mean","[1]; 2 mg/kg/day oral, week 6",23.6 g
same,"body weight, Mean","[1]; 2 mg/kg/day oral, week 7",23.8 g
same,"body weight, Mean","[1]; 2 mg/kg/day oral, week 9",23.3 g
same,"drinking water intake, Mean","[2]; 2 mg/kg/day oral, week 0",7.07
same,"drinking water intake, Mean","[2]; 2 mg/kg/day oral, week 1",7.73
same,"drinking water intake, Mean","[2]; 2 mg/kg/day oral, week 2",7.05
same,"drinking water intake, Mean","[2]; 2 mg/kg/day oral, week 3",7.89
same,"drinking water intake, Mean","[2]; 2 mg/kg/day oral, week 4",7.69
same,"drinking water intake, Mean","[2]; 2 mg/kg/day oral, week 5",7.10
same,"drinking water intake, Mean","[2]; 2 mg/kg/day oral, week 6",7.35
same,"drinking water intake, Mean","[2]; 2 mg/kg/day oral, week 7",7.18
same,"drinking water intake, Mean","[2]; 2 mg/kg/day oral, week 8",7.83
same,"drinking water intake, Mean","[2]; 2 mg/kg/day oral, week 9",7.45
same,"drinking water intake, Mean","[2]; 2 mg/kg/day oral, week 10",7.19
same,"blood sugar, Mean","[3]; 2 mg/kg/day oral, value column 2 of 6, head prints only weeks 0, 4, 8, 10",309.1
same,"blood sugar, Mean","[3]; 2 mg/kg/day oral, value column 3 of 6, head prints only weeks 0, 4, 8, 10",329.2
same,"blood sugar, Mean","[3]; 2 mg/kg/day oral, value column 4 of 6, head prints only weeks 0, 4, 8, 10",336.9
same,"blood sugar, Mean","[3]; 2 mg/kg/day oral, value column 6 of 6, head prints only weeks 0, 4, 8, 10",331.4
same,"blood sugar, Mean","[3]; 2 mg/kg/day oral, week 0",307.1
same,"T-CHO, Mean","[4]; 2 mg/kg/day oral, 12 weeks, blood",139.0 dL⁻¹
same,Kidney Medullar apoptosis,[5]; 2 mg/kg (G3),1
same,Kidney Medullar mineralization,[5]; 2 mg/kg (G3),2
same,Kidney NHL,[5]; 2 mg/kg (G3),6
same,Kidney bowman's capsule hyperplasia,[5]; 2 mg/kg (G3),2
same,Kidney pappillary mineralization,[5]; 2 mg/kg (G3),0
same,Liver Apoptosis,[5]; 2 mg/kg (G3),4
same,Liver Cytoplasmic glycogen,[5]; 2 mg/kg (G3),0
same,Liver Eosinophlic focus of cellular alteration,[5]; 2 mg/kg (G3),3
same,Liver Mononuclear cell infiltrate,[5]; 2 mg/kg (G3),0
same,Liver NHL,[5]; 2 mg/kg (G3),5
same,Pancrease Apoptosis,[5]; 2 mg/kg (G3),0
same,Pancrease NHL,[5]; 2 mg/kg (G3),8
same,Pancrease islet degeneration,[5]; 2 mg/kg (G3),1
same,Pancrease islet hypertrophy,[5]; 2 mg/kg (G3),0
same,"Pancrease islet, mononuclear cell infillitrate",[5]; 2 mg/kg (G3),1
"O=C(O)c1cc(=O)c2c(OCC(O)COc3cccc4oc(C(=O)O)cc(=O)c34)cccc2o1 [OC-101, cromolyn, reference compound]","body weight, Mean","[1]; 50 mg/kg/day oral, week 0",23.9 g
same,"body weight, Mean","[1]; 50 mg/kg/day oral, week 1",23.4 g
same,"body weight, Mean","[1]; 50 mg/kg/day oral, week 2",23.5 g
same,"body weight, Mean","[1]; 50 mg/kg/day oral, week 3",23.3 g
same,"body weight, Mean","[1]; 50 mg/kg/day oral, week 4",23.5 g
same,"body weight, Mean","[1]; 50 mg/kg/day oral, week 5",23.4 g
same,"body weight, Mean","[1]; 50 mg/kg/day oral, week 6",23.5 g
same,"body weight, Mean","[1]; 50 mg/kg/day oral, week 7",23.4 g
same,"body weight, Mean","[1]; 50 mg/kg/day oral, week 8",23.2 g
same,"body weight, Mean","[1]; 50 mg/kg/day oral, week 9",23 g
same,feed intake,[6]; week 3,5.47
same,feed intake,[6]; week 4,4.26
same,feed intake,[6]; week 6,4.29
same,feed intake,[6]; week 9,4.51
same,"drinking water intake, Mean","[2]; 50 mg/kg/day oral, week 0",6.78
same,"drinking water intake, Mean","[2]; 50 mg/kg/day oral, week 1",6.11
same,"drinking water intake, Mean","[2]; 50 mg/kg/day oral, week 2",7.68
same,"drinking water intake, Mean","[2]; 50 mg/kg/day oral, week 3",6.99
same,"drinking water intake, Mean","[2]; 50 mg/kg/day oral, week 4",7.23
same,"drinking water intake, Mean","[2]; 50 mg/kg/day oral, week 5",6.76
same,"drinking water intake, Mean","[2]; 50 mg/kg/day oral, week 6",7.60
same,"drinking water intake, Mean","[2]; 50 mg/kg/day oral, week 7",7.06
same,"drinking water intake, Mean","[2]; 50 mg/kg/day oral, week 8",7.17
same,"drinking water intake, Mean","[2]; 50 mg/kg/day oral, week 9",7.09
same,"drinking water intake, Mean","[2]; 50 mg/kg/day oral, week 10",6.76
same,"blood sugar, Mean","[3]; 50 mg/kg/day oral, value column 2 of 6, head prints only weeks 0, 4, 8, 10",336.8
same,"blood sugar, Mean","[3]; 50 mg/kg/day oral, week 0",200.9
same,GLU compared to the disease control group,[4]; 50 mg/kg,decreased statistically significantly
same,"ALT, Mean",[4]; [9],31.3 L⁻¹
same,"AST, Mean",[4]; [9],34.0 L⁻¹
same,"T-CHO, Mean",[4]; [9],24.2 dL⁻¹
same,HOMA-IR compared with the disease control group,[7],decreased statistically significantly
same,"Indoxyl sulfate, Mean",[8],0.8 µg/mL
same,Kidney Medullar apoptosis,"[5]; 50 mg/kg (G6, G7)",0
same,Kidney Medullar mineralization,"[5]; 50 mg/kg (G6, G7)",1
same,Kidney NHL,"[5]; 50 mg/kg (G6, G7)",8
same,Kidney bowman's capsule hyperplasia,"[5]; 50 mg/kg (G6, G7)",1
same,Kidney pappillary mineralization,"[5]; 50 mg/kg (G6, G7)",0
same,Liver Apoptosis,"[5]; 50 mg/kg (G6, G7)",2
same,Liver Cytoplasmic glycogen,"[5]; 50 mg/kg (G6, G7)",0
same,Liver Eosinophlic focus of cellular alteration,"[5]; 50 mg/kg (G6, G7)",1
same,Liver Mononuclear cell infiltrate,"[5]; 50 mg/kg (G6, G7)",3
same,Liver NHL,"[5]; 50 mg/kg (G6, G7)",5
same,Pancrease Apoptosis,"[5]; 50 mg/kg (G6, G7)",0
same,Pancrease NHL,"[5]; 50 mg/kg (G6, G7)",6
same,Pancrease islet degeneration,"[5]; 50 mg/kg (G6, G7)",2
same,Pancrease islet hypertrophy,"[5]; 50 mg/kg (G6, G7)",2
same,"Pancrease islet, mononuclear cell infillitrate","[5]; 50 mg/kg (G6, G7)",1
